Data reported in US12594282B2, “Use of small molecule compounds in the treatment of diseases mediated by lung epithelial cell injury and/or vascular endothelial cell injury” (Guangzhou Cellprotek Pharmaceutical Co., Ltd., priority 2020, dated 2026).

Experiments:
[1] = system: HPAEpiC cells; test: LPS+hypoxia model, LDH release, alveolar epithelial cells; assay type: cell-based, human
Procedure: HPAEpiC cells were cultured with alveolar epithelial cell medium. When the cells grew to about 80% confluence, the cells were digested with 0.25% trypsin, and then pipetted evenly with alveolar epithelial cell medium. The cell concentration was adjusted to 2×10^5 cells/mL, and the cells were seeded in a 24-well plate at 400 uL/well. The experiment was conducted when the cells grew to about 70% confluence.
The hypoxia workstation was set to have an oxygen concentration of 1% (1% O2, 5% CO2, 94% a temperature to 37° C., and a humidity of 85%. After the conditions in the hypoxia workstation were stable, 1 mg/mL LPS was directly added to the cells to make the final concentration of LPS […], and then the cells were cultured in the hypoxia workstation for 24 hours.
Before being subjected to the model, the cells in the drug group were pre-incubated with vehicle (20% hydroxypropyl cyclodextrin solution) or drug (the final concentration of YC-6 was 1 μM, 5 μM, 10 μM) for 1 hour, and then added with LPS, and placed in the hypoxia workstation for constructing the model, until the end of the experiment. The model control group was not treated with any drug, and the normal group was placed in a cell incubator for routine culturing. 10 μM dexamethasone was used as the drug control. Three replicates were performed for each treatment group.

[2] = system: NR4A3 mRNA; test: NR4A3 mRNA under OGD-R, RAOEC (real-time fluorescent quantitative PCR); assay type: cell-based, rat; conditions: 10 μM given at restoration
Procedure: HUVEC cells were cultured in modified DMEM medium containing 10% fetal bovine serum. When the cells reached about 80% confluence, the cells were digested with 0.25% trypsin, and then pipetted evenly with modified DMEM containing 10% […]. The cell concentration was adjusted to 1×10^5 cells/mL, and the cells were seeded at 400 uL/well in a 24-well plate, and the experiment was carried out when the cells grew to about 70% confluence. RAOEC cells were cultured in high-glucose DMEM medium containing 10% fetal bovine serum, and the seeding conditions were the same as those of HUVEC. During the OGD-R injury treatment, the hypoxia workstation was set to have an oxygen concentration of 1% (1% O2, 5% CO2, 94% N2), a temperature of 37° C., and a humidity of 85%. A sugar-free DMEM medium was placed in the hypoxia workstation for pre-hypoxia for 3 hours. The medium in the culture plate was aspirated, and the plate was washed twice with preheated sugar-free DMEM medium, and 100 uL of sugar-free DMEM medium was added to each well. The culture plate was placed in the hypoxia workstation, and 300 uL of pre-hypoxic sugar-free DMEM medium was added to each well, and then the culture plate was placed in the hypoxia workstation for additional hypoxia for 4 hours. Restoration was then performed. […]

Which results are given for C[C@@]12CCCC1C1C[C@@H](O)[C@]3(O)C[C@@H](O)CC[C@]3(C)C1CC2 (stereo partly drawn) [YC-6, 5α-androst-3β,5,6β-triol]?
protective effect compared with 10 μM dexamethasone (LDH release) ([1]; 10 μM, LPS and 1% O2 for 24 hours): significantly better protective effect than dexamethasone; damage to alveolar epithelial cells (LDH release) induced by hypoxia and LPS ([1]; 1, 5, 10 μM, 1 hour pre-incubation, 20 μg/mL LPS and 1% O2 for 24 hours): dose-dependently reduce damage to alveolar epithelial cells; transcription level of NR4A3 (relative mRNA expression) [2]: did not significantly up-regulate the transcription level of NR4A3
